This test deals with CWR22RV1 cells. Briefly: Compound in combination with androgen receptor inhibitor HC-1119, proliferation of CWR22RV1 cells (CCK-8). The format is cell-based, human. The note with it: for IC50: Homo sapiens, CWR22Rv1, 144 h, 6 days, read-out: IC50 for inhibition on the activity of CWR22RV1. The protocol: • CWR22RV1 cell line (Cell Bank of Chinese Academy of Sciences, TCHu100) • FBS (Gibco, Cat. No. 10099-141) • 0.01M PBS (Biosharp, Cat. No. 162262) • RIPM1640 (Hyclone, Cat. No. 308090.01) • Penicillin-Streptomycin (Hyclone, Cat. No. SV30010) • Cell counting kit-8 (Signalway Antibody, Cat. No. CP002) • DMSO (Sigma, Cat. No. D5879) • Centrifuge Tube, 15 ml (Excell Bio, Cat. No. CS015-0001) • Cell Culture Dish, (Excell Bio, Cat. No. CS016-0128) • 96-well cell culture cluster (Corning, Cat. No. 3599) Experimental Method:
1) CWR22RV1 cells were subcultured in cell culture media, and the cells in good growth condition were seeded in a 96-well plate, 60 μL for each well, thus the number of cells per well was 2000, then the plate was cultured overnight in a 37° C., 5% CO2 cell incubator.
2) The drug was prepared with dimethyl sulfoxide (DMSO) as a 10 mM stock solution. Prior to use, the solution was diluted 3 times with DMSO, and then diluted with a 3-fold gradient to obtain 9 concentration gradients. Then, each concentration of the compound was further diluted 200 times with the culture media (to ensure that DMSO concentration in the culture system was 0.1%), 2 repeat wells for each concentration. The diluted solution of each compound (20 μL) was added to the cell culture well (with a final concentration of 10 μM, 3.3 μM, 1.1 μM . . . ); while the solution of HC-1119 was diluted with culture media to the concentrations of 50 μM and 15 μM, respectively, and the diluted solution of HC-1119 was added to the corresponding cell culture well (with a final concentration of 10 μM, 3 μM), then shaken gently for mixing. In addition, three negative control wells containing only cells and three blank control wells containing only culture media (20 μL DMSO diluted 200 times with culture media being added to six wells) were included.
(1) After culturing for 6 days, 10 μL CCK-8 was added to each well and cultured for additional 2.5 h in a 37° C., 5% CO2 cell incubator.
(2) The absorbance (OD value) at 450 nm was measured with a multifunctional microplate reader.
(3) The data was analyzed by the Dose-response-inhibition equation in the software GraphPad Prism6, and the IC50 value was obtained.

The values below come from US12162878B2 (HINOVA PHARMACEUTICALS INC., priority 2018, dated 2024).

Usually IC50 stands for the concentration that gives 50% inhibition.

SMILES strings stand for the structures. Read-outs that look alike come from different tables or passages of the source.

For `[2H]C([2H])([2H])n1cc(-c2cc(S(C)(=O)=O)ccc2N2CCC3(CC2)CC3(F)F)c2cc[nH]c2c1=O` [Compound 184, 4-(2-(1,1-difluoro-6-aza-spiro[2.5]octan-6-yl)-5-(methylsulfonyl)phenyl)-6-trideuteromethyl-1H-pyrrolo[2,3-c]pyridin-7(6H)-one], the IC50 runs as follows: (compound alone, CWR22RV1 cells) 8.1 nM; (in combination with 3 μM HC-1119, CWR22RV1 cells) 2 nM; (in combination with 10 μM HC-1119, CWR22RV1 cells) 1.5 nM. In addition, the “effect of combination with HC-1119 on inhibitory action on CWR22RV1 cells (in words)” value (in combination with HC-1119, CWR22RV1 cells) is given as “improve the inhibitory action”.
